| Compound | glass transition temperature [°C] |
| --- | --- |
| *c1ccc(Oc2ccc(C(=O)c3ccc(C(=O)c4ccc(Oc5ccc(N6C(=O)c7ccc(-c8ccc9c(c8)C(=O)N(*)C9=O)cc7C6=O)cc5)cc4)cc3)cc2)cc1 (repeat unit) | 245.00 |
| *Cc1ccccc1CN(CC)c1ccc(/C=C/c2ccc(/C=C(\C#N)C(=O)NC3CCCCC3NC(=O)/C(C#N)=C/c3ccc(/C=C/c4ccc(N(*)CC)cc4)cc3)cc2)cc1 (repeat unit) | 201.00 |
| *c1ccc2c(c1)C(=O)N(c1ccc(N(c3ccc(/C=C/c4ccc([N+](=O)[O-])cc4)cc3)c3ccc(N4C(=O)c5ccc(C(*)(C(F)(F)F)C(F)(F)F)cc5C4=O)cc3)cc1)C2=O (repeat unit) | 290.00 |
| *Oc1ccc(CC(NC(=O)CCc2ccc(OC(=O)CCCCCCCCC(*)=O)cc2)C(=O)OCc2ccccc2)cc1 (repeat unit) | 42.00 |
| *CCCCCCCCCCCCOc1ccc(CCc2ccc(O*)cc2C)cc1 (repeat unit) | 0.00 |
| *CCOCCOc1ccc(C(=O)Nc2cc(NC(=O)c3ccc(O*)cc3)cc(-c3nc4ccccc4[nH]3)c2)cc1 (repeat unit) | 230.00 |
| *CCCC1(CCCNC(=O)c2ccccc2-c2ccccc2C(=O)N*)c2ccccc2-c2ccccc21 (repeat unit) | 165.00 |
| *CCCC1(CCCNC(=O)c2cccc(C(=O)N*)c2)c2ccccc2-c2ccccc21 (repeat unit) | 175.00 |
| *CC(*)CC(C)C (repeat unit) | 35.20 |
| *Oc1ccc(-c2ccc(/N=N/c3ccc(C(*)=O)cc3)cc2)cc1 (repeat unit) | 147.00 |
| *Nc1ccc(CC(C)(C)NC(=O)CCCCCCCCC(*)=O)cc1 (repeat unit) | 92.00 |
| *CCCCCCCOC(=O)c1ccc(-c2ccc(C(=O)O*)cc2)cc1 (repeat unit) | 44.00 |
| *CCOCCOC(=O)C(CCCCC)C(=O)O* (repeat unit) | -47.00 |
| *c1cccc(N2C(=O)c3cccc(Oc4ccc(Oc5cccc6c5C(=O)N(*)C6=O)cc4)c3C2=O)c1 (repeat unit) | 259.00 |
| */C=C/CCCCCCC(Cl)CCCCCC* (repeat unit) | -57.00 |
| *CCCCCOc1ccc(CCc2ccc(O*)cc2C)cc1 (repeat unit) | 15.40 |
| *OC(=O)C(Cc1ccccc1)NC(=O)CCCCCCCCC(=O)NC(Cc1ccccc1)C(=O)OC1COC2C(*)COC12 (repeat unit) | 74.00 |
| *CC(*)c1ccc(C(=O)c2ccccc2)cc1 (repeat unit) | 98.00 |
| *C(=O)c1ccc2c(c1)C(=O)N(c1ccc(Oc3c(C)cc(C(c4cc(C)c(Oc5ccc(N6C(=O)c7ccc(*)cc7C6=O)cc5)c(C)c4)c4cccc5ccccc45)cc3C)cc1)C2=O (repeat unit) | 272.00 |
| *Nc1cccc2c(NC(=O)c3cc(NC(=O)C(CCSC)N4C(=O)c5ccccc5C4=O)cc(C(*)=O)c3)cccc12 (repeat unit) | 198.00 |
| *c1ccc(Oc2ccc(N3C(=O)CC(C4C=C(C)C5C(=O)N(*)C(=O)C5C4)C3=O)cc2)cc1 (repeat unit) | 278.00 |

| Compound | glass transition temperature [°C] |
| --- | --- |
| *CCCCc1ccc(-c2c(-c3ccccc3)cc(-c3ccc(-c4cc(-c5ccccc5)c(-c5ccc(*)cc5)c(-c5ccccc5)c4-c4ccccc4)cc3)c(-c3ccccc3)c2-c2ccccc2)cc1 (repeat unit) | 205.00 |
| *c1cccc(-c2nc3cc4nc(*)c(-c5ccccc5)nc4cc3nc2-c2ccccc2)c1 (repeat unit) | 365.00 |
| *c1ccc(Oc2ccc(N3C(=O)c4cccc(Oc5ccc(-c6ccc(Oc7cccc8c7C(=O)N(*)C8=O)cc6)cc5)c4C3=O)cc2)cc1 (repeat unit) | 277.00 |
| */C=C/CCCCCC* (repeat unit) | -78.00 |
| *c1cccc(Oc2cccc(Oc3cccc(N4C(=O)c5c(c(-c6ccccc6)c(-c6ccc(Oc7ccc(-c8c(-c9ccccc9)c9c(c(-c%10ccccc%10)c8-c8ccccc8)C(=O)N(*)C9=O)cc7)cc6)c(-c6ccccc6)c5-c5ccccc5)C4=O)c3)c2)c1 (repeat unit) | 261.00 |
| *c1ccc2c(c1)C(=O)N(c1ccc(C3(c4ccc(N5C(=O)c6ccc(C(*)(C(F)(F)F)C(F)(F)F)cc6C5=O)c(F)c4)c4ccccc4-c4ccccc43)cc1F)C2=O (repeat unit) | 352.00 |
| *C(=O)c1ccc2c(c1)C(=O)N(c1ccc(-c3nc(-c4ccccc4)nc(-c4ccc(N5C(=O)c6ccc(*)cc6C5=O)cc4)n3)cc1)C2=O (repeat unit) | 355.00 |
| *C(=O)Nc1ccc(Oc2ccc(Oc3ccc(N4C(=O)c5ccc(*)cc5C4=O)cc3)cc2)cc1 (repeat unit) | 250.00 |
| *OCCCCOC1COC2C(OC(=O)CCCCC(=O)OC3COC4C(*)COC34)COC12 (repeat unit) | 114.00 |
| *Oc1ccc(C(C)(C)c2ccc(Oc3ccc(C(=O)Nc4cccc(NC(=O)c5ccc(*)cc5)c4)cc3)cc2)cc1 (repeat unit) | 214.00 |
| *C/C=C/COC(=O)C(Cc1ccccc1)NC(=O)CCCCCCCCC(=O)NC(Cc1ccccc1)C(=O)O* (repeat unit) | 46.00 |
| *CC(*)(C)C(=O)OCCCCCCOc1ccc(C(=O)Oc2ccc(/N=N/c3ccc(Cl)cc3)c3ccccc23)cc1 (repeat unit) | 50.00 |
| *CC(*)C(=O)OCC1(CC)COC(c2ccccc2)OC1 (repeat unit) | 50.00 |
| *C(=O)Oc1ccc(-c2ccc(OC(=O)c3ccc4c(c3)C(=O)N(c3ccc(Oc5ccc(N6C(=O)c7ccc(*)cc7C6=O)cc5)cc3)C4=O)cc2)cc1 (repeat unit) | 232.00 |
| *c1ccc2c(c1)C(=O)N(c1cccc(Oc3ccc(Oc4cccc(N5C(=O)c6ccc(C(*)(C(F)(F)F)C(F)(F)F)cc6C5=O)c4)cc3)c1)C2=O (repeat unit) | 230.00 |
| *CCCCCCCCCCCCNC(=O)NCCCCCCNC(=O)N* (repeat unit) | 49.00 |
| */C=C/c1ccc(/C=C/c2ccc3c(c2)C(CCCCCCOc2ccc4ccc(=O)oc4c2)(CCCCCCOc2ccc4ccc(=O)oc4c2)c2cc(*)ccc2-3)cc1 (repeat unit) | 104.00 |
| *O[Si](*)(C)CCCCCCCCCCC(=O)OCCC(F)(F)C(F)(F)C(F)(F)C(F)(F)C(F)(F)C(F)(F)F (repeat unit) | -69.00 |
| *c1ccc(-c2ccc(-n3c(=O)c4cc5c(=O)n(*)c(=O)c5c(C(F)(F)F)c4c3=O)cc2C(F)(F)F)c(C(F)(F)F)c1 (repeat unit) | 373.00 |
| *Oc1ccc(-c2ccc(Oc3ccc(*)cc3)c3ccccc23)c2ccccc12 (repeat unit) | 226.00 |
| *CC(*)C(=O)OCCOC(=O)c1cc([N+](=O)[O-])cc([N+](=O)[O-])c1 (repeat unit) | 60.80 |

| Compound | glass transition temperature [°C] |
| --- | --- |
| *c1ccc(C2(c3ccc(N4C(=O)c5ccc(-c6ccc7c(c6)C(=O)N(*)C7=O)cc5C4=O)cc3)c3ccccc3-c3ccccc32)cc1 (repeat unit) | 388.00 |
| *CC(*)(C)C(=O)OCCCCc1ccc(/N=N/c2ccc(OC(F)(F)F)cc2)cc1 (repeat unit) | 203.50 |
| *CCSCc1ccc(Cc2ccc(CSCCOC(=O)CSCc3ccc(Cc4ccc(CSCC(=O)O*)cc4)cc3)cc2)cc1 (repeat unit) | 14.00 |
| *Oc1cccc(C(F)(F)C(F)(F)C(F)(F)c2cccc(OC(=O)c3cccc(C(F)(F)C(F)(F)C(F)(F)c4cccc(C(*)=O)c4)c3)c2)c1 (repeat unit) | 74.00 |
| *CC(C)(CO*)COCC(F)(F)C(F)(F)C(F)(F)C(F)(F)C(F)(F)C(F)(F)C(F)(F)F (repeat unit) | -49.00 |
| *Oc1ccc(CC(NC(=O)CCc2ccc(OC(=O)CCC(*)=O)cc2)C(=O)OCCCCCCCC)cc1 (repeat unit) | 48.00 |
| *CC(CSCCCC)O* (repeat unit) | -65.00 |
| *C(=O)Nc1ccc(Oc2ccc(C3(c4ccc(Oc5ccc(NC(=O)c6ccc7c(c6)C(=O)N(c6ccc(Oc8cccc(Oc9ccc(N%10C(=O)c%11ccc(*)cc%11C%10=O)cc9)c8)cc6)C7=O)cc5)cc4)NC(=O)c4ccccc43)cc2)cc1 (repeat unit) | 267.00 |
| *Oc1ccc(CC(NC(=O)CCc2ccc(OC(=O)CCC(*)=O)cc2)C(=O)OCC)cc1 (repeat unit) | 78.00 |
| *CC(O)COC(=O)CCCCC(=O)OCC(O)COc1ccc(O*)cc1 (repeat unit) | 19.00 |
| *c1cccc(OCCCCCCCCCCCCOc2cccc(N3C(=O)c4ccc(-c5cccc6c5C(=O)N(*)C6=O)cc4C3=O)c2)c1 (repeat unit) | 116.00 |
| *N=P(N=P(N=S(*)(=O)NCC)(NCC)NCC)(NCC)NCC (repeat unit) | 4.00 |
| */C(F)=C(\F)C(F)(C(*)(F)F)C(F)(F)F (repeat unit) | -3.00 |
| *CCCNC(=O)CCCCCCCCC(=O)NCCCOCCOCCO* (repeat unit) | 40.00 |
| *CCN(CCOC(=O)CCC#CC#CCCC(=O)O*)c1ccc(/N=N/c2c(C)cc(/N=N/c3ccc(C#N)cc3)cc2C)cc1 (repeat unit) | 63.00 |
| *C(=O)c1ccc2c(c1)C(=O)N(c1ccc3c(c1)C(=O)c1cc(N4C(=O)c5ccc(*)cc5C4=O)ccc1-3)C2=O (repeat unit) | 331.00 |
| *C(=O)Nc1ccc(Cc2ccc(NC(=O)c3ccc4c(c3)C(=O)N(c3ccc(/N=N/c5ccc(C)cc5)c(N5C(=O)c6ccc(*)cc6C5=O)c3)C4=O)cc2)cc1 (repeat unit) | 268.00 |
| *CCCCC(C)CCn1c(=O)c2cc3c(=O)n(*)c(=O)c3cc2c1=O (repeat unit) | 135.00 |
| *C(=O)c1ccc(Oc2ccc(-c3ccc(Oc4ccc(C(=O)c5ccc6c(c5)C(=O)N(c5ccc(N7C(=O)c8ccc(*)cc8C7=O)cc5)C6=O)cc4)cc3)cc2)cc1 (repeat unit) | 229.00 |

Reference: the PolyMetriX glass transition set
